From patent US10639251B2, “Method for inhibiting or masking fishy odours” (Symrise AG, priority 2015, dated 2020)
pIC50: −log10 of the molar value. Values joined by “and” are separate entries in the source; they are usually repeats but may differ in a detail not shown here. Equal values may be shown once. “Also recorded” adds a separate entry of the source. Read-outs that look alike come from different tables or passages of the source.

Columns and labels:
murine TAAR5 = molecular target: T1, murine TAAR5 (Mus musculus, UniProt Q5QD14); test: Cre-luciferase assay, murine TAAR5 responses to TMA; assay type: cell-based; settings: Timberol 100 μM
T1 construct: expressed in transfected cells; host or cells: HANA3A cells
T1 sequence (Q5QD14 1-337): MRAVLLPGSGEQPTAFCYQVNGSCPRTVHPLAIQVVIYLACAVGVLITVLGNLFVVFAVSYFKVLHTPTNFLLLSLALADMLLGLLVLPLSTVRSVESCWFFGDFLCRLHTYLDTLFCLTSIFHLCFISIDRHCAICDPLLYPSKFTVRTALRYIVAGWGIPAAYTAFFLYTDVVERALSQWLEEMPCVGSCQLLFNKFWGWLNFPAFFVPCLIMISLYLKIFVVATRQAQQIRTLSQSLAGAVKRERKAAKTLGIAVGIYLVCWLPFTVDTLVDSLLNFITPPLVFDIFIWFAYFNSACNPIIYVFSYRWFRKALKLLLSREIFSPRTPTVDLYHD

hTAAR5 = molecular target: T2, hTAAR5 (Homo sapiens, UniProt O14804); test: Cre-luciferase reporter gene assay, hTAAR5-mediated responses to TMA in transfected HANA3A cells; assay type: cell-based; settings: for pIC50: read-out: half maximal inhibitory concentration (IC50)
T2 construct: expressed in transfected cells; host or cells: HANA3A cells
T2 sequence (O14804 1-337): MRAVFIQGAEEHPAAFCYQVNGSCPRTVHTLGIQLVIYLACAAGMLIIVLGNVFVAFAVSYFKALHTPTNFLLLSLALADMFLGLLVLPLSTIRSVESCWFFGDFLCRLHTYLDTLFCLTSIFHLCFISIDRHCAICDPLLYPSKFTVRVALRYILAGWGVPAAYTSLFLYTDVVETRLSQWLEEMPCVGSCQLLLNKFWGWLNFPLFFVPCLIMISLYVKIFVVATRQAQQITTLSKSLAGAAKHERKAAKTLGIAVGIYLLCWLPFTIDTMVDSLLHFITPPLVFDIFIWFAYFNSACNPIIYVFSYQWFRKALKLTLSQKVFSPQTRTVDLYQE
Method: (§1) In order to identify suitable antagonist for TMA the protocol of Zhuang and Matsunami for measuring receptor activity with the Dual-Glo Luciferase Assay System (Promega) was adapted [see Nat. Protoc. 3(9), p. 1402-1413 (2008)]. HANA3A cells were maintained under standard conditions in DMEM supplemented with 10% FBS and 100 units/ml penicillin and streptomycin at 37° C. Cells (approximately 15,000 cells/well) were plated on poly-D-lysine-coated 96-well plates (NUNC) and transfected after 24 h with the FuGENE® HD (Promega) transfection reagent according to the manufacturer's protocol. In a 96-well plate, we placed 18 μl transfection reagent, 1-5 μg receptor plasmid, 2 μg pGL4-luciferase reporter, 1 μg pRL-TK-Renilla reporter, 0.5 μg G-protein αolf, 1 μg receptor transport protein (RTP1S) and 1 μg M3 muscarinic acetylcholine receptor (for hOR51E1) to ensure cell surface expression. Cells were stimulated 24 h after transfection for 4 h at 37° C. with test substances diluted in CD 293 medium (1×) (Life Technologies) with 2 mM L-glutamine (Life Technologies) added. After stimulation with test substances, recombinant hTAAR5 activation elevated cAMP and the subsequent expression of the cAMP-dependent reporter gene construct Cre-luciferase. Expression rates of Cre-luciferase were monitored by luminescent enzymatic reactivity. Thus, luminescence signals correlate with receptor activation. The Renilla luciferase reporter driven by a constitutively active TK-promoter (pRL-TK-Renilla) served as an internal control to determine cell viability and transfection efficiency. Firefly luciferase activity to the Renilla luciferase signal was normalized for all wells. The ratios of antagonistic stimulation were normalized to the ratios of agonist stimulation. Furthermore, mock-transfected cells were stimulated to exclude unspecific responses to the tested substances.
To identify blocker substances for hTAAR5-mediated responses to TMA, the Cre-luciferase reporter gene assay was used. Human TAAR5-transfected HANA3A cells were stimulated with a mix of the agonist TMA (300 μM) and 100 μM of a potential blocker substance (FIG. 1).
For more detailed information concerning the type of antagonism (competitive vs. non-competitive) in the following experiments, the pharmacological profile of Timberol® was characterized. To test the concentration dependency of the Timberol® block, a concentration-inhibition curve (FIG. 2a) was measured. The blocking effect was increased with increasing concentrations of Timberol® and decreased with increasing concentrations of the agonist TMA. The latter was reflected by a significant concentration-inhibition curve shift.

MOR42-3 = test: Cre-luciferase assay, MOR42-3-mediated responses to azelaic acid; assay type: cell-based, murine; settings: Timberol 30 μM; agonist below and above EC50
Method: In order to identify suitable antagonist for TMA the protocol of Zhuang and Matsunami for measuring receptor activity with the Dual-Glo Luciferase Assay System (Promega) was adapted [see Nat. Protoc. 3(9), p. 1402-1413 (2008)]. HANA3A cells were maintained under standard conditions in DMEM supplemented with 10% FBS and 100 units/ml penicillin and streptomycin at 37° C. Cells (approximately 15,000 cells/well) were plated on poly-D-lysine-coated 96-well plates (NUNC) and transfected after 24 h with the FuGENE® HD (Promega) transfection reagent according to the manufacturer's protocol. In a 96-well plate, we placed 18 μl transfection reagent, 1-5 μg receptor plasmid, 2 μg pGL4-luciferase reporter, 1 μg pRL-TK-Renilla reporter, 0.5 μg G-protein αolf, 1 μg receptor transport protein (RTP1S) and 1 μg M3 muscarinic acetylcholine receptor (for hOR51E1) to ensure cell surface expression. […] Expression rates of Cre-luciferase were monitored by luminescent enzymatic reactivity. Thus, luminescence signals correlate with receptor activation. […]
Another experiment was directed to figure out whether the Timberol® block is exclusively mediated by hTAAR5. […] Then the impact of Timberol® on MOR42-3- and hOR51E1-mediated responses to the respective agonists was tested with concentrations below and above the calculated EC50 values. […]

intracellular cAMP = test: Control experiments: intracellular cAMP level in hTAAR5-transfected HANA3A cells (basal and forskolin-stimulated); assay type: cell-based, human
Method: as §1, with “The Renilla luciferase reporter driven by a constitutively active TK-promoter (pRL-TK-Renilla) served as an internal control to determine cell viability and transfection efficiency. Firefly luciferase activity to the Renilla luciferase signal was normalized for all wells. The ratios of antagonistic stimulation were normalized to the ratios of agonist stimulation. Furthermore, mock-transfected cells were stimulated to exclude unspecific responses to the tested substances.” left out

SMILES: CCCC(O)CCC1C(C)CCCC1(C)C (centres unmarked) [Timberol®, Norlimbanol]
- blocking effect on murine TAAR5 (murine TAAR5; 1 μM TMA): 34%±2%
- inhibition of mTAAR5-mediated responses to TMA (murine TAAR5): able to block; also recorded: inhibits
- block of average hTAAR5 responses (hTAAR5; 30 μM Timberol): at least 50%
- block of hTAAR5 response (hTAAR5; 30 μM Timberol, 30 μM TMA): ~78%
- block of hTAAR5 response (hTAAR5; 30 μM Timberol, 100 μM TMA): ~56%
- blocking effect (hTAAR5; 100 μM Timberol, 30 μM TMA): ~96% and 96%±1.7%
- blocking effect (hTAAR5; 100 μM Timberol, 100 μM TMA): 86%±3.6%
- inhibition of hTAAR5 responses to TMA (hTAAR5; 100 μM Timberol, 300 μM TMA): 72%±6%
- pIC50 (hTAAR5; TMA 30 μM): 4.78
- pIC50 (hTAAR5; TMA 100 μM): 4.56
- reduction / inhibition of hTAAR5-mediated TMA responses (hTAAR5; TMA 300 μM, putative antagonist 100 μM): nearly completely block
- blocking effect on MOR42-3-mediated responses to azelaic acid (MOR42-3): no any significant impact; also recorded: No significant blocking effects
- basal cAMP production (intracellular cAMP; Timberol (100 μM) alone vs unstimulated controls): No significant reduction; also recorded: did not affect
- cAMP levels after forskolin (intracellular cAMP; Timberol (100 μM) mixed with 10 μM forskolin vs forskolin alone): no significant difference; also recorded: did not affect
